According to paper PMC12040169 (PLOS Biology, 2025):

Test: in vitro
Settings: human, hela cells, % viability

Point of comparison: `CSc1ccccc1CNC(=O)c1ccc(C)nc1N1CCOCC1` [CBK106224], viability at 28.5 h, 10 µM 91.9%. Against it:
- COCCNc1nc(-c2ccc3c(c2)OCO3)ccc1C(=O)N(C)CCN(C)C [CBK105915] — higher, 103%
- COCCNc1nc(-c2cccc(Cl)c2Cl)ccc1C(=O)N(C)CCN(C)C [CBK105922] — higher, 98.3%
- COCCNc1nc(-c2ccc3[nH]ccc3c2)ccc1C(=O)N1CCN(C)CC1 [CBK105956] — higher, 92.2%
- COCCNc1nc(-c2cc(C(C)C)ccc2OC)ccc1C(=O)NCCNC(C)=O [CBK105985] — higher, 96.6%
- CNC(=O)c1ccc(-c2ccc(C)c(C)c2)nc1NCCOC [CBK105999] — higher, 96.6%
- CNC(=O)c1ccc(-c2cccc(OC(F)(F)F)c2)nc1NCCOC [CBK106000] — higher, 96.4%
- CNC(=O)c1ccc(-c2ccccc2C)nc1NCCOC [CBK106007] — higher, 99.7%
- COCCNC(=O)c1ccc(-c2ccc(OC)cc2)nc1N1CCN(C(=O)c2ccco2)CC1 [CBK106010] — lower, 88.1%
- CC(=O)Nc1cccc(-c2ccc(C(=O)NCc3ccc(F)cc3)c(N3CCN(C(=O)c4ccco4)CC3)n2)c1 [CBK106012] — lower, 85.5%
- COc1cccc(-c2ccc(C(=O)NCc3ccccc3SC)c(N3CCN(C(=O)c4ccco4)CC3)n2)c1 [CBK106025] — higher, 94.3%
- COc1cccc(NC(=O)c2ccc(-c3cc(C(F)(F)F)cc(C(F)(F)F)c3)nc2N(C)C)c1 [CBK106028] — higher, 119%
- COCCNC(=O)c1ccc(-c2cccc(Cl)c2Cl)nc1N(C)C [CBK106057] — lower, 89.4%
- CN(C)CCN(C)C(=O)c1ccc(-c2ccccc2)nc1N(C)C [CBK106070] — lower, 88.1%
- CC(=O)c1ccc(-c2ccc(C(=O)N(C)CCN(C)C)c(N(C)C)n2)s1 [CBK106071] — lower, 85.6%
- CN(C)CCN(C)C(=O)c1ccc(-c2ccc3c(c2)OCO3)nc1N(C)C [CBK106072] — higher, 92.7%
- CN(C)CCN(C)C(=O)c1ccc(-c2cccc(N(C)C)c2)nc1N(C)C [CBK106077] — lower, 89.6%
- CN(C)CCN(C)C(=O)c1ccc(-c2cccc(OC(F)(F)F)c2)nc1N(C)C [CBK106081] — lower, 90.3%
- Cc1csc(-c2ccc(C(=O)N(C)CCN(C)C)c(N(C)C)n2)c1 [CBK106088] — higher, 94.1%
- COCc1cccc(-c2ccc(C(=O)N(C)CCN(C)C)c(N(C)C)n2)c1 [CBK106091] — higher, 103%
- CN1CCN(C(=O)c2ccc(-c3ccc(N4CCOCC4)cc3)nc2N(C)C)CC1 [CBK106114] — lower, 90%
- CN1CCN(C(=O)c2ccc(-c3ccccc3)nc2N(C)C)CC1 [CBK106115] — lower, 84.4%
- CNC(=O)c1ccc(-c2ccc3[nH]ccc3c2)nc1N(C)C [CBK106146] — lower, 90.9%
- CNC(=O)c1ccc(-c2cc(C)cs2)nc1N(C)C [CBK106150] — lower, 86.8%
- CC(=O)c1ccc(-c2ccc(C(=O)N3CCN(C)CC3)c(N3CCOCC3)n2)s1 [CBK106181] — higher, 96.3%
- Cc1ccc(C(=O)NCc2nc3ccccc3[nH]2)c(N2CCOCC2)n1 [CBK106200] — lower, 88.4%
- Cc1ccc(C(=O)NCCN2CCOCC2)c(N2CCOCC2)n1 [CBK106201] — lower, 87%
- Cc1ccc(C(=O)NCc2ccc3c(c2)CCO3)c(N2CCOCC2)n1 [CBK106202] — lower, 88.8%
- CNC(=O)c1ccc(-c2ccccc2OC)nc1N1CCOCC1 [CBK106210] — lower, 87.4%
- CNC(=O)c1cccc(NC(=O)c2ccc(C)nc2N2CCOCC2)c1 [CBK106223] — higher, 95.1%
- COCCNC(=O)c1ccc(-c2cc(C(C)C)ccc2OC)nc1NCC1CC1 [CBK106256] — higher, 94.1%
- Cc1csc(-c2ccc(C(=O)N(C)CCN(C)C)c(NCC3CC3)n2)c1 [CBK106279] — lower, 84.2%
- CNC(=O)c1ccc(-c2ccc(N3CCOCC3)cc2)nc1NCC1CC1 [CBK106305] — higher, 102%
- CNC(=O)c1ccc(-c2cc(OC)c(OC)c(OC)c2)nc1NCC1CC1 [CBK106312] — higher, 101%
- CNC(=O)c1ccc(-c2cccc(COC)c2)nc1NCC1CC1 [CBK106322] — lower, 90.7%
- COCCNC(=O)c1ccc(-c2ccccc2C)nc1NC(C)=O [CBK106325] — higher, 109%
- CC(=O)N(C)c1nc(-c2ccccc2C)ccc1C(=O)NC1CCCCC1 [CBK106333] — higher, 96.9%
- CC(=O)N(C)c1nc(-c2ccccc2C)ccc1C(=O)N(C)C [CBK106350] — lower, 89%
- O=C(NCc1nc2ccccc2[nH]1)c1cc(-c2ccc(Cl)cc2)cnc1NCc1ccc2c(c1)OCO2 [CBK106377] — higher, 102%
- O=C(NCc1ccco1)c1cc(-c2ccc3[nH]ccc3c2)cnc1NCCOc1ccccc1 [CBK106388] — lower, 89.9%
- CNC(=O)c1cccc(NC(=O)c2cc(-c3ccc(O)cc3)cnc2N(C)C)c1 [CBK106397] — lower, 89.6%
- O=C(O)c1cccc(-c2cnc(NCC3CC3)c(C(=O)NCC(F)(F)F)c2)c1 [CBK106420] — higher, 117%
- Cc1ccccc1-c1cnc(NS(C)(=O)=O)c(C(=O)N(C)C)c1 [CBK106430] — higher, 103%
- O=C1CCC(=O)N1CCn1c(=O)n(S(=O)(=O)c2cccc(Cl)c2)c2ccccc21 [CBK106493] — higher, 93.1%
- CCCS(=O)(=O)n1c(=O)n(CC(=O)c2ccccc2OC)c2ccccc21 [CBK106498] — higher, 93.1%
- CCN(CC)c1ccc(C(=O)Cn2c(=O)n(C(=O)CCCc3ccc(OC)cc3)c3ccccc32)cc1 [CBK106503] — lower, 89.6%
- CCN(CC)c1ccc(C(=O)Cn2c(=O)n(S(=O)(=O)c3ccc4ccccc4c3)c3ccccc32)cc1 [CBK106505] — lower, 88.9%
- COC(=O)c1ccccc1S(=O)(=O)n1c(=O)n(CCc2c[nH]c3ccccc23)c2ccccc21 [CBK106509] — lower, 87.2%
- CC(C)c1ccc(S(=O)(=O)n2c(=O)n(CCc3c[nH]c4ccccc34)c3ccccc32)cc1 [CBK106518] — lower, 87.4%
- CS(=O)(=O)c1cccc(C(=O)n2c(=O)n(CC3CCCCC3)c3ccccc32)c1 [CBK106520] — higher, 103%
- COC(=O)CCCC(=O)n1c(=O)n(CC2CCCCC2)c2ccccc21 [CBK106524] — higher, 112%
- O=c1n(CC2CCCCC2)c2ccccc2n1S(=O)(=O)c1ccc2ccccc2c1 [CBK106527] — higher, 92.5%
- CS(=O)(=O)c1ccc(Cn2c(=O)n(S(=O)(=O)c3ccccc3)c3ccccc32)cc1 [CBK106530] — higher, 95.1%
- CN(C)c1cccc2c(S(=O)(=O)n3c(=O)n(Cc4ccc(S(C)(=O)=O)cc4)c4ccccc43)cccc12 [CBK106535] — higher, 103%
- COC(=O)CCCC(=O)n1c(=O)n(Cc2ccc(S(C)(=O)=O)cc2)c2ccccc21 [CBK106538] — higher, 105%
- COc1ccc(Cn2c(=O)n(S(=O)(=O)c3ccc(C)cc3)c3ccccc32)cc1 [CBK106550] — higher, 95.1%
- COc1ccc(Cn2c(=O)n(C(=O)CCc3cccc(OC)c3)c3ccccc32)cc1 [CBK106557] — higher, 113%
- COc1ccc(Cn2c(=O)n(S(=O)(=O)c3cccc(-c4nnc(C)o4)c3)c3ccccc32)cc1 [CBK106558] — lower, 89.8%
- CC(C)S(=O)(=O)n1c(=O)n(CC(=O)c2csc3ccccc23)c2ccccc21 [CBK106559] — higher, 99.8%
- COc1cccc(CCC(=O)n2ccn(CCCOc3ccccc3)c2=O)c1 [CBK106565] — higher, 104%
- Cc1ccccc1-n1ccn(S(=O)(=O)c2ccccc2)c1=O [CBK106567] — lower, 86.7%
- Cc1ccccc1-n1ccn(C(=O)CCC2CCCC2)c1=O [CBK106571] — higher, 106%
- Cc1ccccc1-n1ccn(C(=O)CCCOc2ccc(Cl)cc2)c1=O [CBK106573] — lower, 88.5%
- CS(=O)(=O)c1ccccc1C(=O)n1ccn(-c2cccc(C(F)(F)F)c2)c1=O [CBK106584] — lower, 91.1%
- O=c1n(-c2cccc(C(F)(F)F)c2)ccn1S(=O)(=O)c1ccc(N2CCOCC2)nc1 [CBK106590] — higher, 104%
- Cc1nnc(-c2cccc(S(=O)(=O)n3ccn(-c4cccc(C(F)(F)F)c4)c3=O)c2)o1 [CBK106592] — the same, 91.9%
- Cc1nn(C)c(C)c1S(=O)(=O)n1ccn(-c2cccc(C(F)(F)F)c2)c1=O [CBK106593] — higher, 98.7%
- COC(=O)c1ccc(S(=O)(=O)n2ccn(-c3cccc(C(F)(F)F)c3)c2=O)n1C [CBK106594] — lower, 90.1%
- COc1ccc(-n2ccn(C(=O)CCC3CCCC3)c2=O)cc1 [CBK106595] — lower, 90.4%
- COc1cccc(CCC(=O)n2ccn(-c3ccc(N(C)C)cc3)c2=O)c1 [CBK106609] — higher, 99%
- O=C(CCC1CCCC1)n1ccn(CCc2cccs2)c1=O [CBK106611] — higher, 97.6%
- COC(=O)CCCC(=O)n1ccn(CCc2cccs2)c1=O [CBK106612] — higher, 92%
- O=c1n(C(c2ccccc2)c2ccccc2)ccn1S(=O)(=O)c1cccc(Cl)c1 [CBK106615] — lower, 91.5%
- O=C(CCC1CCCC1)n1ccn(C(c2ccccc2)c2ccccc2)c1=O [CBK106619] — higher, 103%
- COc1ccc(S(=O)(=O)n2ccn(C(c3ccccc3)c3ccccc3)c2=O)cc1OC [CBK106621] — lower, 89.1%
- O=C(CCC1CCCC1)n1ccn(-c2ccc3c(c2)OCO3)c1=O [CBK106631] — higher, 101%
- CCCc1ccc(S(=O)(=O)n2ccn(-c3ccc4c(c3)OCO4)c2=O)cc1 [CBK106634] — higher, 94.6%
- CS(=O)(=O)c1ccccc1C(=O)n1ccn(-c2ccc(Oc3ccccc3)cc2)c1=O [CBK106647] — lower, 80.8%
- c1ccc(-c2nccnc2OCCc2cccs2)cc1 [CBK106673] — higher, 103%
- CC(=O)Nc1ccc(CCOc2nccnc2-c2ccccc2)cc1 [CBK106683] — higher, 96.3%
- c1ccc(COc2nccnc2-c2ccccc2)cc1 [CBK106686] — higher, 92.2%
- O=C1CCC(=O)N1CCOc1nccnc1-c1ccc2c(c1)OCO2 [CBK106698] — higher, 92.3%

Same assay, conditions: human, hela cells, % viability, bulk resorufin, single well

Molecule `FC(F)(F)c1ccc(COc2cccc(-c3ccc4c(c3)COC3(CCNCC3)O4)c2)cc1` [CBK105868] has a viability at 28.5 h, 10 µM of 83.7%.
